Laboratory results from article PMC5064002, “Sintokamide A Is a Novel Antagonist of Androgen Receptor That Uniquely Binds Activation Function-1 in Its Amino-terminal Domain” (The Journal of Biological Chemistry, 2016).

Columns and labels:
[1] = target: T1, AR NTD (Homo sapiens, UniProt P10275); test: Transactivation of AR NTD (AR-(1–558)-Gal4 DBD, 5xGal4UAS-TATA-luciferase) in LNCaP cells; format: cell-based; details: for IL-6-induced transactivation of AR NTD: 20 μM SINT1 or 25 μM EPI-002, 50 ng/ml IL-6 24 h; for forskolin-induced transactivation of AR NTD: 20 μM SINT1 or 25 μM EPI-002, 50 μM forskolin 24 h
T1 construct: expression vector for AR NTD encoding amino acids 1–558 fused to the Gal4 DBD; expressed in transfected cells; host or cells: LNCaP
T1 sequence (P10275 1-558): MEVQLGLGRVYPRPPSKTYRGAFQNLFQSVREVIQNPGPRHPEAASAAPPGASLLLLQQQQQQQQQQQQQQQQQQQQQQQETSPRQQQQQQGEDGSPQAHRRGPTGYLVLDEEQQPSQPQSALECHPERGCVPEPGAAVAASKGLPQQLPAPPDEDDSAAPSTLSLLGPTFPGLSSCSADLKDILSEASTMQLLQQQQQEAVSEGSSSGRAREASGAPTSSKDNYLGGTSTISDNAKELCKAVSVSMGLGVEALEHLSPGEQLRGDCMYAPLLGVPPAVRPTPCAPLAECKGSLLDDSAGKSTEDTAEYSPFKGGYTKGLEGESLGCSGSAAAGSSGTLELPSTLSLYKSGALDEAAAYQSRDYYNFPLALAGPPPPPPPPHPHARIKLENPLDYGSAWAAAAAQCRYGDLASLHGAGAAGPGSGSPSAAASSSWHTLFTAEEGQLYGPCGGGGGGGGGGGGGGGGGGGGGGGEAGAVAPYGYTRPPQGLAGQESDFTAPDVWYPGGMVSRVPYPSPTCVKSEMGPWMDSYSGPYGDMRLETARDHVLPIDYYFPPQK
Method: LNCaP cells were co-transfected with 5xGal4UAS-TATA-luciferase and AR-(1–558)-Gal4 DBD prior to pretreatment with 20 μM SINT1 or 25 μM EPI-002, which binds to the AR NTD to block AR transcriptional activity. NTD activity was induced by incubation with 50 μM forskolin or 50 ng/ml IL-6 for an additional 24 h ([7], [8]).
To test whether SINT1 can inhibit transactivation of AR NTD, LNCaP cells were co-transfected with an expression vector for AR NTD encoding amino acids 1–558 fused to the Gal4 DBD and a reporter construct with Gal4 DBD-binding sites. Transactivation of AR NTD is induced by forskolin or IL-6 ([8], [14]).

[2] = system: LNCaP95 cells; test: Cell proliferation (BrdU incorporation), LNCaP95; format: cell-based; details: 48 h
Method: Cells were pulse-labeled with 10 μM BrdU for 2 h. Cells were fixed, and BrdU-labeled cells were identified with anti-BrdU-peroxidase (Roche Applied Science). BrdU incorporation was measured at 570 nm using a VersaMax ELISA microplate reader (Molecular Devices). At least three independent experiments with six technical replicates were analyzed, and average values are indicated.

[3] = target: T2, recombinant AR LBD (Rattus norvegicus, UniProt P15207); test: Fluorescence polarization competition assay (Androgen Receptor Competitor Assay); format: binding; details: AR LBD 25 nM, 1 nM Fluormone AL Green; SINT1 and EPI-002 tested at 0.5–50 μM
T2 construct: purchased Invitrogen
T2 sequence (P15207 651-882 limits assumed): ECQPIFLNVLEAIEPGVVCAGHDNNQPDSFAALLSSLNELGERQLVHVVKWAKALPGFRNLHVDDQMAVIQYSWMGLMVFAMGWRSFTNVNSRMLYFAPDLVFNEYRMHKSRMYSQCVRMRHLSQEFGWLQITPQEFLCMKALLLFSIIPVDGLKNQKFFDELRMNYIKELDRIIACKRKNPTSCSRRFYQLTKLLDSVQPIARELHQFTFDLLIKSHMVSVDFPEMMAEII
Method: The Androgen Receptor Competitor Assay (Green) kit (Invitrogen) was used. […] The reactions with serial dilutions of test compounds were completed in 40-μl aliquots in triplicates. Displacement of Fluormone AL Green from AR LBD by the test compounds was measured by the change in fluorescence polarization using Infinite® M1000 (Tecan) with excitation at 470 nm and emission at 535 nm.
To determine whether the mechanism of action of SINT1 to inhibit androgen-induced AR transcriptional activity was mediated by binding to AR LBD, a fluorescence polarization competition assay was used. This assay uses recombinant AR LBD to reveal whether a test compound competes for ligand binding of Fluoromone that binds to this domain.

Structure (SMILES) | IL-6-induced transactivation of AR NTD [1] | forskolin-induced transactivation of AR NTD [1] | proliferation of LNCaP95 cells [2] | competition with Fluoromone for binding to AR LBD [3]
CC(C)(c1ccc(OC[C@H](O)CO)cc1)c1ccc(OC[C@H](O)CCl)cc1 [EPI-002, reference compound] | potent inhibitor | significantly inhibited | inhibited | did not compete
CCC(=O)NC(CC(C)C(Cl)(Cl)Cl)C(=O)N1C(=O)C=C(OC)C1CC(C)C(Cl)Cl (centres unmarked) [SINT1, Sintokamide A] | no significant effect | significantly inhibited | inhibited | did not compete
